{"source": "patent US8247211B2", "about": "“Glycopeptide antibiotics” (American Cyanamid Company, priority 2001, dated 2012)", "test_in_all_cases": "In vitro antibacterial evaluation: minimum inhibitory concentration (MIC), broth dilution method", "format_in_all_cases": "cell-based", "key": {"Escherichia coli": {"test_system": "Escherichia coli", "settings": "broth dilution, 18 hours at 35° C."}, "Streptococcus sp.": {"test_system": "Streptococcus sp.", "settings": "broth dilution, 18 hours at 35° C.", "summary_of_the_method": "(§1)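 Test strains, among them recent clinical isolates carrying methicillin, penicillin and/or vancomycin resistance, were inoculated at 5×10^5 CFU/mL. A broth dilution series spanning 64-0.06 μg/mL in Muller-Hinton II […] (NCCLS M7-A2) defined the MIC as the lowest growth-inhibiting concentration.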"}, "Staphylococcus sp.": {"test_system": "Staphylococcus sp.", "settings": "broth dilution, 18 hours at 35° C.; for MIC Staphylococcus aureus-SMITH (GC 4543): strain SMITH GC 4543", "summary_of_the_method": "as §1"}, "Enterococcus sp.": {"test_system": "Enterococcus sp.", "settings": "broth dilution, 18 hours at 35° C.", "summary_of_the_method": "as §1"}, "[1]": {"settings": "Streptococcus agalactiae (GC 4564)"}, "[2]": {"settings": "Streptococcus pneumoniae (GC 1894)"}, "[3]": {"settings": "Streptococcus pyogenes (GC 4563)"}, "[4]": {"settings": "Enterococcus faecalis (GC 4553)"}}}
{"molecule": "CCCCCCC(=O)Nc1cc(CC2NC(=O)C(C(C)c3ccccc3)NC(=O)CNC(=O)C(CO)NC(=O)C(C(O)C3CNC(=N)N3C3OC(CO)C(O)C(O)C3O)NC(=O)C(C(O)C3CNC(=N)N3)NC2=O)ccc1O", "note": "(stereo not drawn) [Example 16, Cyclo[glycyl-β-methylphenylalanyl-3-(heptanamido)tyrosyl-3-(2-iminoimidazolidin-4-yl)seryl-3-(3-hexopyranosyl-2-iminoimidazolidin-4-yl)serylseryl]]", "values": [{"measurement": "MIC Escherichia coli (ATCC 25922)", "setting": "Escherichia coli", "value": 32, "unit": "µg/mL"}, {"measurement": "MIC Escherichia coli (GC 4559)", "setting": "Escherichia coli", "value": 32, "unit": "µg/mL"}, {"measurement": "MIC Escherichia coli (GC 4560)", "setting": "Escherichia coli", "value": 8, "unit": "µg/mL"}, {"measurement": "MIC Streptococcus agalactiae (GC 4564)", "setting": "Streptococcus sp.; [1]", "value": 64, "unit": "µg/mL"}, {"measurement": "MIC Streptococcus pneumoniae (GC 1894)", "setting": "Streptococcus sp.; [2]", "value": 64, "unit": "µg/mL"}, {"measurement": "MIC Streptococcus pyogenes (GC 4563)", "setting": "Streptococcus sp.; [3]", "value": 16, "unit": "µg/mL"}, {"measurement": "MIC Streptococcus agalactiae (GC 4564)", "setting": "Streptococcus sp.", "value": 64, "unit": "µg/mL"}, {"measurement": "MIC Streptococcus pneumoniae (GC 1894)", "setting": "Streptococcus sp.", "value": 64, "unit": "µg/mL"}, {"measurement": "MIC Streptococcus pyogenes (GC 4563)", "setting": "Streptococcus sp.", "value": 16, "unit": "µg/mL"}, {"measurement": "MIC Staphylococcus aureus-SMITH (GC 4543)", "setting": "Staphylococcus sp.", "value": 64, "unit": "µg/mL"}, {"measurement": "MIC Enterococcus faecalis (GC 4553)", "setting": "Enterococcus sp.; [4]", "value": 64, "unit": "µg/mL"}, {"measurement": "MIC Enterococcus faecium (GC 4557)", "setting": "Enterococcus sp.; Enterococcus faecium (GC 4557)", "value": 16, "unit": "µg/mL"}, {"measurement": "MIC Enterococcus faecalis (GC 4553)", "setting": "Enterococcus sp.", "value": 64, "unit": "µg/mL"}, {"measurement": "MIC Enterococcus faecium (GC 4557)", "setting": "Enterococcus sp.", "value": 16, "unit": "µg/mL"}]}
{"molecule": "CC(c1ccccc1)C1NC(=O)CNC(=O)C(CO)NC(=O)C(C(O)C2CNC(=N)N2C2OC(CO)C(O)C(O)C2O)NC(=O)C(C(O)C2CNC(=N)N2)NC(=O)C(Cc2ccc(O)c(NC(=O)c3ccccc3)c2)NC1=O", "note": "(stereo not drawn) [Example 17, Cyclo[glycyl-β-methylphenylalanyl-3-(benzamido)tyrosyl-3-(2-iminoimidazolidin-4-yl)seryl-3-(3-hexopyranosyl-2-iminoimidazolidin-4-yl)serylseryl]]", "values": [{"measurement": "MIC Escherichia coli (ATCC 25922)", "setting": "Escherichia coli", "value": 64, "unit": "µg/mL"}, {"measurement": "MIC Escherichia coli (GC 4559)", "setting": "Escherichia coli", "value": 32, "unit": "µg/mL"}, {"measurement": "MIC Escherichia coli (GC 4560)", "setting": "Escherichia coli", "value": 16, "unit": "µg/mL"}, {"measurement": "MIC Streptococcus agalactiae (GC 4564)", "setting": "Streptococcus sp.; [1]", "value": ">64", "unit": "µg/mL"}, {"measurement": "MIC Streptococcus pneumoniae (ATCC 6301)", "setting": "Streptococcus sp.; Streptococcus pneumoniae (ATCC 6301)", "value": ">64", "unit": "µg/mL"}, {"measurement": "MIC Streptococcus pneumoniae (GC 1894)", "setting": "Streptococcus sp.; [2]", "value": 64, "unit": "µg/mL"}, {"measurement": "MIC Streptococcus pneumoniae (GC 4565)", "setting": "Streptococcus sp.; Streptococcus pneumoniae (GC 4565)", "value": ">64", "unit": "µg/mL"}, {"measurement": "MIC Streptococcus pyogenes (GC 4563)", "setting": "Streptococcus sp.; [3]", "value": ">64", "unit": "µg/mL"}, {"measurement": "MIC Streptococcus agalactiae (GC 4564)", "setting": "Streptococcus sp.", "value": ">64", "unit": "µg/mL"}, {"measurement": "MIC Streptococcus pneumoniae (ATCC 6301)", "setting": "Streptococcus sp.", "value": ">64", "unit": "µg/mL"}, {"measurement": "MIC Streptococcus pneumoniae (GC 1894)", "setting": "Streptococcus sp.", "value": 64, "unit": "µg/mL"}, {"measurement": "MIC Streptococcus pneumoniae (GC 4565)", "setting": "Streptococcus sp.", "value": ">64", "unit": "µg/mL"}, {"measurement": "MIC Streptococcus pyogenes (GC 4563)", "setting": "Streptococcus sp.", "value": ">64", "unit": "µg/mL"}, {"measurement": "MIC Staphylococcus aureus-SMITH (GC 4543)", "setting": "Staphylococcus sp.", "value": ">64", "unit": "µg/mL"}, {"measurement": "MIC Enterococcus avium (GC 4558)", "setting": "Enterococcus sp.; Enterococcus avium (GC 4558)", "value": 64, "unit": "µg/mL"}, {"measurement": "MIC Enterococcus faecalis (ATCC 29212)", "setting": "Enterococcus sp.; Enterococcus faecalis (ATCC 29212)", "value": ">64", "unit": "µg/mL"}, {"measurement": "MIC Enterococcus faecalis (GC 2242)", "setting": "Enterococcus sp.; Enterococcus faecalis (GC 2242)", "value": ">64", "unit": "µg/mL"}, {"measurement": "MIC Enterococcus faecalis (GC 2691)", "setting": "Enterococcus sp.; Enterococcus faecalis (GC 2691)", "value": ">64", "unit": "µg/mL"}, {"measurement": "MIC Enterococcus faecalis (GC 3059)", "setting": "Enterococcus sp.; Enterococcus faecalis (GC 3059)", "value": ">64", "unit": "µg/mL"}, {"measurement": "MIC Enterococcus faecalis (GC 4552)", "setting": "Enterococcus sp.; Enterococcus faecalis (GC 4552)", "value": ">64", "unit": "µg/mL"}, {"measurement": "MIC Enterococcus faecalis (GC 4553)", "setting": "Enterococcus sp.; [4]", "value": ">64", "unit": "µg/mL"}, {"measurement": "MIC Enterococcus faecalis (GC 4554)", "setting": "Enterococcus sp.; Enterococcus faecalis (GC 4554)", "value": ">64", "unit": "µg/mL"}, {"measurement": "MIC Enterococcus faecalis (GC 6189)", "setting": "Enterococcus sp.; Enterococcus faecalis (GC 6189)", "value": ">64", "unit": "µg/mL"}, {"measurement": "MIC Enterococcus faecium (GC 2243)", "setting": "Enterococcus sp.; Enterococcus faecium (GC 2243)", "value": ">64", "unit": "µg/mL"}, {"measurement": "MIC Enterococcus faecium (GC 4556)", "setting": "Enterococcus sp.; Enterococcus faecium (GC 4556)", "value": 64, "unit": "µg/mL"}, {"measurement": "MIC Enterococcus faecium (GC 4557)", "setting": "Enterococcus sp.; Enterococcus faecium (GC 4557)", "value": 64, "unit": "µg/mL"}, {"measurement": "MIC Enterococcus avium (GC 4558)", "setting": "Enterococcus sp.", "value": 64, "unit": "µg/mL"}, {"measurement": "MIC Enterococcus faecalis (ATCC 29212)", "setting": "Enterococcus sp.", "value": ">64", "unit": "µg/mL"}, {"measurement": "MIC Enterococcus faecalis (GC 2242)", "setting": "Enterococcus sp.", "value": ">64", "unit": "µg/mL"}, {"measurement": "MIC Enterococcus faecalis (GC 2691)", "setting": "Enterococcus sp.", "value": ">64", "unit": "µg/mL"}, {"measurement": "MIC Enterococcus faecalis (GC 3059)", "setting": "Enterococcus sp.", "value": ">64", "unit": "µg/mL"}, {"measurement": "MIC Enterococcus faecalis (GC 4552)", "setting": "Enterococcus sp.", "value": ">64", "unit": "µg/mL"}, {"measurement": "MIC Enterococcus faecalis (GC 4553)", "setting": "Enterococcus sp.", "value": ">64", "unit": "µg/mL"}, {"measurement": "MIC Enterococcus faecalis (GC 4554)", "setting": "Enterococcus sp.", "value": ">64", "unit": "µg/mL"}, {"measurement": "MIC Enterococcus faecalis (GC 6189)", "setting": "Enterococcus sp.", "value": ">64", "unit": "µg/mL"}, {"measurement": "MIC Enterococcus faecium (GC 2243)", "setting": "Enterococcus sp.", "value": ">64", "unit": "µg/mL"}, {"measurement": "MIC Enterococcus faecium (GC 4556)", "setting": "Enterococcus sp.", "value": 64, "unit": "µg/mL"}, {"measurement": "MIC Enterococcus faecium (GC 4557)", "setting": "Enterococcus sp.", "value": 64, "unit": "µg/mL"}]}
{"molecule": "CC(c1ccccc1)C1NC(=O)CNC(=O)C(CO)NC(=O)C(C(O)C2CNC(=N)N2C2OC(CO)C(O)C(O)C2O)NC(=O)C(C(O)C2CNC(=N)N2)NC(=O)C(Cc2ccc(O)c(NC=O)c2)NC1=O", "note": "(stereo not drawn) [Example 18, Cyclo[glycyl-β-methylphenylalanyl-3-formamidotyrosyl-3-(2-iminoimidazolidin-4-yl)seryl-3-(3-hexopyranosyl-2-iminoimidazolidin-4-yl)serylseryl]]", "values": [{"measurement": "MIC Escherichia coli (ATCC 25922)", "setting": "Escherichia coli", "value": 64, "unit": "µg/mL"}, {"measurement": "MIC Escherichia coli (GC 4559)", "setting": "Escherichia coli", "value": 32, "unit": "µg/mL"}, {"measurement": "MIC Escherichia coli (GC 4560)", "setting": "Escherichia coli", "value": 16, "unit": "µg/mL"}, {"measurement": "MIC Streptococcus pneumoniae (GC 1894)", "setting": "Streptococcus sp.; [2]", "value": 64, "unit": "µg/mL"}, {"measurement": "MIC Streptococcus pneumoniae (GC 1894)", "setting": "Streptococcus sp.", "value": 64, "unit": "µg/mL"}, {"measurement": "MIC Enterococcus faecium (GC 4557)", "setting": "Enterococcus sp.; Enterococcus faecium (GC 4557)", "value": 64, "unit": "µg/mL"}, {"measurement": "MIC Enterococcus faecium (GC 4557)", "setting": "Enterococcus sp.", "value": 64, "unit": "µg/mL"}]}
{"molecule": "CC(c1ccccc1)C1NC(=O)CNC(=O)C(CO)NC(=O)C(C(O)C2CNC(=N)N2C2OC(CO)C(O)C(O)C2O)NC(=O)C(C(O)C2CNC(=N)N2)NC(=O)C(Cc2ccc3oc(-c4ccccc4OC4OC(CO)C(O)C(O)C4O)nc3c2)NC1=O", "note": "(stereo not shown) [Example 36]", "values": [{"measurement": "MIC Escherichia coli (GC 4560)", "setting": "Escherichia coli", "value": 64, "unit": "µg/mL"}, {"measurement": "MIC Coagulase Negative Staphylococcus (GC 4547)", "setting": "Staphylococcus sp.", "value": 64, "unit": "µg/mL"}, {"measurement": "MIC Coagulase Negative Staphylococcus (GC 4549)", "setting": "Staphylococcus sp.", "value": 64, "unit": "µg/mL"}, {"measurement": "MIC Coagulase Negative Staphylococcus (GC 6257)", "setting": "Staphylococcus sp.", "value": 64, "unit": "µg/mL"}, {"measurement": "MIC Staphylococcus haemolyticus (GC 4546)", "setting": "Staphylococcus sp.", "value": 64, "unit": "µg/mL"}]}
